Experimental data published in US20120323009A1, “PRODUCTION METHOD OF REDUCED PYRROLOQUINOLINE QUINONE” (MITSUBISHI GAS CHEMICAL COMPANY, INC., priority 2010, published 2012).

How the values were obtained:
[1] = Storage test of reduced PQQ (oxidation to oxidized PQQ); type: physicochemical
Description: In Examples and Comparative Examples, the UV measurements were performed on a HITACHI U-2000 Spectrophotometer.
In 500 g of water, […] of pyrroloquinoline quinone disodium was dissolved to a concentration of 0.01 mol/L. In 100 g of water, 3.51 g of L-ascorbic acid was dissolved to a concentration of 0.2 mol/L.
20 g of the pyrroloquinoline quinone disodium solution mentioned above having a concentration of 0.01 mol/L (pH 3.5) was mixed with 20 g of an L-ascorbic acid solution having a concentration of 0.2 mol/L at room temperature. The molar ratio of L-ascorbic acid is 20 with respect to pyrroloquinoline quinone. The pH of the solution was 2 as measured with a pH test strip. The mixed solution was allowed to react at room temperature overnight (pH 2). After the reaction, a solid of the reduced form was precipitated. Under this condition, it is believed that at least 15-fold moles of L-ascorbic acid is present, even allowing for the amounts consumed in the reduction reaction and in air oxidization.
The solid of the reduced form obtained in Example 6 was separated through centrifugation. The supernatant was removed, and the solid was washed with water. This process removed L-ascorbic acid. An aqueous sodium hydroxide solution was added thereto to adjust the value of pH to 7. All the reduced form was converted to the oxidized form in 30 minutes.
1 g of a pyrroloquinoline quinone disodium solution having a concentration of 0.01 mol/L (pH 3.5) was mixed with 1 g of an L-ascorbic acid solution having a concentration of 0.014 mol/L. When 1 g of this mixed solution was transferred to a 15-ml container and brought into contact with air, the solution included 14% of oxidized PQQ (pH 3). After this oxidized PQQ-containing reduced PQQ was left at 30° C. for one week, 18% of oxidized PQQ was included.

[2] = Non-patent document 3; cited from earlier work

time in which all the reduced form was converted to the oxidized form ([1]; Comparative Example 3: solid washed with water, L-ascorbic acid removed, pH adjusted to 7 with aqueous sodium hydroxide): 30 min
state of the reduced form after storage ([1]; Example 7: aqueous reaction solution, pH 2, at least 15-fold moles of L-ascorbic acid present, stored at room temperature for one week): maintained in the reduced state
oxidized PQQ included ([1]; Example 8: 0.01 mol/L PQQ disodium + 0.014 mol/L L-ascorbic acid mixed solution, pH 3, brought into contact with air, before storage): 14%
oxidized PQQ included ([1]; Example 8: same solution after being left at 30° C. for one week): 18%
SMILES: O=C(O)c1cc(C(=O)O)c2c(n1)c(O)c(O)c1cc(C(=O)O)[nH]c12 [reduced PQQ, reduced pyrroloquinoline quinone]
antioxidative activity compared with ascorbic acid [2]: greater antioxidative activity than that exhibited by ascorbic acid
antioxidative activity compared with conventional PQQ [2]: extremely higher antioxidative activity than that exhibited by the conventional PQQ
